Measurements published in patent publication US20230117034A1, “PYRAZOLOTRIAZINES” (Bayer Aktiengesellschaft, priority 2019, published 2023).

Key:
[1] = molecular target: T1, CDK2/CycE (Homo sapiens, UniProt P24941); assay: CDK2/CycE kinase assay (TR-FRET, 2 mM ATP); type: biochemical; settings: 2 mM ATP (high ATP); median; read-out: CDK2/CyclinE, 2 mM ATP (high ATP), IC50 (median)
T1 construct: purchased ProQinase GmbH (Freiburg, Germany); host or cells: insect cells (Sf9)
Outline: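 GST-tagged human CDK2 and CycE from Sf9 cells, about 10 ng/ml, pre-incubated 15 min at 22 °C with compound in Tris/HCl pH 8.0 buffer. Reaction with 2 mM ATP and 0.75 µM biotinylated peptide for 25 min at 22 °C. Phospho-RB antibody TR-FRET (665/620 nm ratio) read after 1 h; data normalised to no-inhibitor and no-enzyme controls.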

[2] = molecular target: CDK12/CycK (Homo sapiens, UniProt Q9NYV4); assay: CDK12/CycK high ATP kinase assay (TR-FRET, 2 mM ATP); type: biochemical; settings: 2 mM ATP (high ATP); median; read-out: CDK12/CyclinK, 2 mM ATP (high ATP), IC50-[mol/l] (median)
Chain of CDK12/CycK (Q9NYV4 with tags, fused parts or gaps): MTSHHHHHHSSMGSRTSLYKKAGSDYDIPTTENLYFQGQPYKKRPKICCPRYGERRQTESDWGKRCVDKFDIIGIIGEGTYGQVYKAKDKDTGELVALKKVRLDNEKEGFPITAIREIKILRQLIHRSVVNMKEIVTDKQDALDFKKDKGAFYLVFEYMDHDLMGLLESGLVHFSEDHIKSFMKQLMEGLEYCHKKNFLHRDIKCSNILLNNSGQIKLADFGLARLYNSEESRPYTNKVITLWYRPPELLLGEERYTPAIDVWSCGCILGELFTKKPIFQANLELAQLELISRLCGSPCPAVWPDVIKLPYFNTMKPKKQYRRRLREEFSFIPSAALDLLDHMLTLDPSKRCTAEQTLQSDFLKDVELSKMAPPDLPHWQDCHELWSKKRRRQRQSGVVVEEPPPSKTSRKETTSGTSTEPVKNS
Chain of CDK12/CycK (O75909 1-300 partner limits assumed): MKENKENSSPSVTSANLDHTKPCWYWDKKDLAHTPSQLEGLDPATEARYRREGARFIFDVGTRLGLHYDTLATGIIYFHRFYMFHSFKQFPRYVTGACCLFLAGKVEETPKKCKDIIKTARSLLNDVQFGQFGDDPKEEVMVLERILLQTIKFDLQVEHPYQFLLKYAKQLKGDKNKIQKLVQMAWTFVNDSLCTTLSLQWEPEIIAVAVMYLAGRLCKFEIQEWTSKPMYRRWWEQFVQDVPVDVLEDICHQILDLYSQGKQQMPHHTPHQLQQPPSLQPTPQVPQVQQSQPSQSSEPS
Outline: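 His-tagged human CDK12/CycK (~0.75 nM) pre-incubated 15 min with compound, then 60 min at 22 °C with 2 mM ATP and 1 µM biotinylated peptide (HEPES pH 7.5, 20 mM MgCl2). EDTA stop; phospho-Ser62 antibody/Eu anti-rabbit and streptavidin-XL665 TR-FRET, 665/620 nm ratio normalised to give IC50.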

## c1ccc2[nH]c(CNc3nc(N4CCOCC4)nc4c(C5CCCC5)cnn34)nc2c1 [Example 244, N-[(1H-benzimidazol-2-yl)methyl]-8-cyclopentyl-2-(morpholin-4-yl)pyrazolo[1,5-a][1,3,5]triazin-4-amine]
[1]
  IC50: > 20 µM
[2]
  IC50: > 20 µM

## c1ccc2[nH]c(CNc3nc(N4CCOCC4)nc4c(C5CCC5)cnn34)nc2c1 [Example 263, N-[(1H-benzimidazol-2-yl)methyl]-8-cyclobutyl-2-(morpholin-4-yl)pyrazolo[1,5-a][1,3,5]triazin-4-amine]
[1]
  IC50: > 20 µM
[2]
  IC50: 6.89 µM

## Brc1cnn2c(NCc3nc4cccnc4[nH]3)nc(N3CCNCC3)nc12.O=CO [Example 19, 8-bromo-N-[(3H-imidazo[4,5-b]pyridin-2-yl)methyl]-2-(piperazin-1-yl)pyrazolo[1,5-a][1,3,5]triazin-4-amine formic acid salt]
[1]
  IC50: 11.4 µM
[2]
  IC50: 11.5 µM

## NC12CC1CN(c1nc(NCc3nc4ccccc4[nH]3)n3ncc(Br)c3n1)C2 (stereo not drawn) [Example 258, 2-(1-amino-3-azabicyclo[3.1.0]hexan-3-yl)-N-(1H-benzimidazol-2-ylmethyl)-8-bromo-pyrazolo[1,5-a][1,3,5]triazin-4-amine]
[1]
  IC50: 3.1 µM
[2]
  IC50: 4.69 µM

## Brc1cnn2c(NCc3nc4ccccc4[nH]3)nc(N3C[C@H]4CNC[C@H]4C3)nc12 [Example 283, N-[(1H-benzimidazol-2-yl)methyl]-8-bromo-2-[(3aR,6aS)-hexahydropyrrolo[3,4-c]pyrrol-2(1H)-yl]pyrazolo[1,5-a][1,3,5]triazin-4-amine]
[1]
  IC50: 7.62 µM
[2]
  IC50: 18.3 µM

## NC1(C(F)(F)F)CCN(c2nc(NCc3nc4ccccc4[nH]3)n3ncc(Br)c3n2)C1 (stereo not drawn) [Example 266, 2-[3-amino-3-(trifluoromethyl)pyrrolidin-1-yl]-N-(1H-benzimidazol-2-ylmethyl)-8-bromo-pyrazolo[1,5-a][1,3,5]triazin-4-amine]
[1]
  IC50: 2.1 µM
[2]
  IC50: 3.48 µM

## Brc1cnn2c(NCc3nc4ccccc4[nH]3)nc(NCC3CC3)nc12 [Example 284, N^4-[(1H-benzimidazol-2-yl)methyl]-8-bromo-N^2-(cyclopropylmethyl)pyrazolo[1,5-a][1,3,5]triazine-2,4-diamine]
[1]
  IC50: 1.99 µM
[2]
  IC50: 5.46 µM

## CN[C@@H]1CCN(c2nc(NCc3nc4ccccc4[nH]3)n3ncc(Br)c3n2)C1 [Example 253, N-[(1H-benzimidazol-2-yl)methyl]-8-bromo-2-[(3R)-3-(methylamino)pyrrolidin-1-yl]pyrazolo[1,5-a][1,3,5]triazin-4-amine]
[1]
  IC50: 12.2 µM
[2]
  IC50: > 20 µM

## Fc1ccc2[nH]c(CNc3nc(N4CCOCC4)nc4c([C@@H]5CC5(F)F)cnn34)nc2c1 (single isomer, unassigned) [Example 315, 8-[(1R or S)-2,2-difluorocyclopropyl]-N-[(5-fluoro-1H-benzimidazol-2-yl)methyl]-2-(morpholin-4-yl)pyrazolo[1,5-a][1,3,5]triazin-4-amine]
[1]
  IC50: > 20 µM
[2]
  IC50: > 19.7 µM

## N[C@H]1CCN(c2nc(NCc3nc4ccccc4[nH]3)n3ncc(Br)c3n2)C1 [Example 245, 2-[(3S)-3-aminopyrrolidin-1-yl]-N-[(1H-benzimidazol-2-yl)methyl]-8-bromopyrazolo[1,5-a][1,3,5]triazin-4-amine]
[1]
  IC50: 5 µM
[2]
  IC50: > 15.8 µM

## CN[C@H]1CCN(c2nc(NCc3nc4ccccc4[nH]3)n3ncc(Br)c3n2)C1 [Example 252, N-[(1H-benzimidazol-2-yl)methyl]-8-bromo-2-[(3S)-3-(methylamino)pyrrolidin-1-yl]pyrazolo[1,5-a][1,3,5]triazin-4-amine]
[1]
  IC50: 13.3 µM
[2]
  IC50: > 20 µM

## CN1CCN(c2nc(NCc3nc4ccccc4[nH]3)n3ncc(C4CC4)c3n2)CC1 [Example 246, N-[(1H-benzimidazol-2-yl)methyl]-8-cyclopropyl-2-(4-methylpiperazin-1-yl)pyrazolo[1,5-a][1,3,5]triazin-4-amine]
[1]
  IC50: > 20 µM
[2]
  IC50: > 12.9 µM

## Fc1ccc2[nH]c(CNc3nc(N4CCOCC4)nc4c(C5CC5(F)F)cnn34)nc2c1 (single isomer, unassigned) [Example 314, 8-[(1R or S)-2,2-difluorocyclopropyl]-N-[(5-fluoro-1H-benzimidazol-2-yl)methyl]-2-(morpholin-4-yl)pyrazolo[1,5-a][1,3,5]triazin-4-amine]
[1]
  IC50: > 20 µM
[2]
  IC50: 9.92 µM

## Brc1cnn2c(NCc3nc4ccccc4[nH]3)nc(N3C[C@H]4CN[C@H]4C3)nc12.O=C(O)C(F)(F)F [Example 255, trifluoroacetic acid-N-[(1H-benzimidazol-2-yl)methyl]-8-bromo-2-[(1R,5R)-3,6-diazabicyclo[3.2.0]heptan-3-yl]pyrazolo[1,5-a][1,3,5]triazin-4-amine (1/1)]
[1]
  IC50: > 20 µM
[2]
  IC50: > 20 µM

## COc1cccc2[nH]c(CNc3nc(N4CCOCC4)nc4c(CC(F)(F)F)cnn34)nc12 [Example 277, N-[(4-methoxy-1H-benzimidazol-2-yl)methyl]-2-(morpholin-4-yl)-8-(2,2,2-trifluoroethyl)pyrazolo[1,5-a][1,3,5]triazin-4-amine]
[1]
  IC50: > 20 µM
[2]
  IC50: 4.79 µM

## N[C@H]1[C@@H]2C[C@H]1CN(c1nc(NCc3nc4ccccc4[nH]3)n3ncc(Br)c3n1)C2 [Example 288, 2-[(1R,5S,6r)-6-amino-3-azabicyclo[3.1.1]heptan-3-yl]-N-[(1H-benzimidazol-2-yl)methyl]-8-bromopyrazolo[1,5-a][1,3,5]triazin-4-amine]
[1]
  IC50: 2.64 µM
[2]
  IC50: 3.38 µM

## Brc1cnn2c(NCc3nc4c([nH]3)CCCC4)nc(N3CCOCC3)nc12 [Example 21, 8-bromo-2-(morpholin-4-yl)-N-[(4,5,6,7-tetrahydro-1H-benzimidazol-2-yl)methyl]pyrazolo[1,5-a][1,3,5]triazin-4-amine]
[1]
  IC50: 2.07 µM
[2]
  IC50: 9.64 µM

## NC1CCN(c2nc(NCc3nc4ccccc4[nH]3)n3ncc(Br)c3n2)CC1 [Example 256, 2-(4-aminopiperidin-1-yl)-N-[(1H-benzimidazol-2-yl)methyl]-8-bromopyrazolo[1,5-a][1,3,5]triazin-4-amine]
[1]
  IC50: 5.06 µM
[2]
  IC50: > 20 µM

## Fc1cccc2[nH]c(CNc3nc(N4CCOCC4)nc4c(CC(F)(F)F)cnn34)nc12 [Example 303, N-[(4-fluoro-1H-benzimidazol-2-yl)methyl]-2-(morpholin-4-yl)-8-(2,2,2-trifluoroethyl)pyrazolo[1,5-a][1,3,5]triazin-4-amine]
[1]
  IC50: > 20 µM
[2]
  IC50: 1.71 µM

## Fc1ccc2[nH]c(CNc3nc(N4CCOCC4)nc4c(C5CC5(F)F)cnn34)nc2c1F (stereo not drawn) [Example 278, N-[(4,5-difluoro-1H-benzimidazol-2-yl)methyl]-8-(2,2-difluorocyclopropyl)-2-(morpholin-4-yl)pyrazolo[1,5-a][1,3,5]triazin-4-amine]
[1]
  IC50: > 20 µM
[2]
  IC50: 2.44 µM

## N[C@@H]1[C@@H]2C[C@H]1CN(c1nc(NCc3nc4ccccc4[nH]3)n3ncc(Br)c3n1)C2 [Example 289, 2-[(1R,5S,6s)-6-amino-3-azabicyclo[3.1.1]heptan-3-yl]-N-[(1H-benzimidazol-2-yl)methyl]-8-bromopyrazolo[1,5-a][1,3,5]triazin-4-amine]
[1]
  IC50: 5.29 µM
[2]
  IC50: 7 µM

## CC1CN(C)CCN1c1nc(NCc2nc3ccccc3[nH]2)n2ncc(Br)c2n1 (single isomer, unassigned; enantiomer 1) [Example 260, N-(1H-benzimidazol-2-ylmethyl)-8-bromo-2-[(2R or S)-2,4-dimethylpiperazin-1-yl]pyrazolo[1,5-a][1,3,5]triazin-4-amine (Enantiomer 1)]
[1]
  IC50: 2.98 µM
[2]
  IC50: 12.2 µM

## CN(CC(C)(C)O)c1nc(NCc2nc3c(F)c(F)ccc3[nH]2)n2ncc(C3CC3)c2n1 [Example 292, 1-[(8-cyclopropyl-4-{[(4,5-difluoro-1H-benzimidazol-2-yl)methyl]amino}pyrazolo[1,5-a][1,3,5]triazin-2-yl)(methyl)amino]-2-methylpropan-2-ol]
[1]
  IC50: > 5.19 µM
[2]
  IC50: 0.666 µM

## Fc1ccc2[nH]c(CNc3nc(N4CCOCC4)nc4c(C5CCC5)cnn34)nc2c1F [Example 264, 8-cyclobutyl-N-[(4,5-difluoro-1H-benzimidazol-2-yl)methyl]-2-(morpholin-4-yl)pyrazolo[1,5-a][1,3,5]triazin-4-amine]
[1]
  IC50: > 20 µM
[2]
  IC50: 2.23 µM

## Fc1ccc2[nH]c(CNc3nc(N4CCOCC4)nc4c(Br)cnn34)nc2c1F [Example 25, 8-bromo-N-[(4,5-difluoro-1H-benzimidazol-2-yl)methyl]-2-(morpholin-4-yl)pyrazolo[1,5-a][1,3,5]triazin-4-amine]
[1]
  IC50: 4.56 µM
[2]
  IC50: 0.731 µM

## Fc1cc2nc(CNc3nc(N4CCOCC4)nc4c(C5CC5)cnn34)[nH]c2cc1F [Example 318, 8-cyclopropyl-N-[(5,6-difluoro-1H-benzimidazol-2-yl)methyl]-2-(morpholin-4-yl)pyrazolo[1,5-a][1,3,5]triazin-4-amine]
[1]
  IC50: > 20 µM
[2]
  IC50: 1.36 µM

## Brc1cnn2c(NCc3ncc(-c4ccccc4)[nH]3)nc(N3CCOCC3)nc12 [Example 23, 8-bromo-2-(morpholin-4-yl)-N-[(5-phenyl-1H-imidazol-2-yl)methyl]pyrazolo[1,5-a][1,3,5]triazin-4-amine]
[1]
  IC50: 1.41 µM
[2]
  IC50: 1.56 µM
